Data reported in patent publication US20260027132A1, “FRAGRANCE COMPOSITIONS AND USE THEREOF FOR IMPROVING SLEEP” (TAKASAGO INTERNATIONAL CORPORATION, priority 2018, published 2026).

System: panelists
Assay: Sleep study with panelists smelling test material at bedtime, Fitbit sleep data versus blank control
Type: in vivo, human
Conditions: vs blank control (no fragrance), 0.06 g neat oil on a blotter, smelled at bedtime, jar left open, one week
Experimental: A series of sleep studies were conducted. Each study runs one week with one additional week for blank control sample (no fragrance). The number of panelists in each study ranged from 9 to 15. Panelists received either a set of control jars or a set of jars with test material (0.06 g neat oil on a blotter). The second week the order was reversed such that at the end of each study, each panelist had received both treatments.
Each night, when ready to go to sleep, panelists were instructed to open one of the jars, hold it under their nose, and smell the fragrance while counting slowly to 20, then leave the jar open on the night table while sleeping. Fitbit sleep data were collected at the end of each session of each study and analyzed by ANOVA.

SMILES	Sleep efficiency % Increase	Total light sleep minutes % Increase	Total minutes awake % Decrease	Total deep sleep minutes % Increase	Total minutes asleep % Increase	Total REM sleep minutes % Increase
CC(=O)/C=C/C1=C(C)CCCC1(C)C [beta-ionone]	2%	3%	12%			
CC(=O)/C=C/C1C(C)=CCCC1(C)C (stereo not drawn) [alpha-ionone]				14%	5%	
C=CC(C)(O)CCC=C(C)C (stereo not shown) [Linalool, linalool]		5%				
CC1(C)CCC[C@]2(C)[C@H]3CCO[C@]3(C)CC[C@@H]12 [Ambroxan, (3aR,5aS,9aS,9bR)-3a,6,6,9a-tetramethyl-2,4,5,5a,7,8,9,9b-octahydro-1H-benzo[e][1]benzofuran]			8%			
CC1CCCCCCCCCCCCC(=O)C1 [L-muscone, 3-methylcyclopentadecan-1-one]				11%		
CC/C=C\CCOC(=O)c1ccccc1O [cis-3-hexenyl salicylate]				8%		
CC(C=O)Cc1ccc(C(C)C)cc1 (stereo not shown) [Cyclamen aldehyde, cyclamen aldehyde]	1.2%		7%	7.4%	4%	
CC(C=O)Cc1ccc(C(C)(C)C)cc1 (stereo not shown) [Lilial, lilial]	1%	5%			4%	6%
CC(C)=CCC/C(C)=C\CO [Nerol, nerol]		4%			4%	
O=C1CCCCCCCCCCCC(=O)OCCO1 [Musk T, 1,4-dioxacycloheptadecane-5,17-dione]	2%		13%			
C=CC(C)CCCC(C)(C)O (stereo not shown) [Dihydromyrcenol, dihydromyrcenol]				37%	13%	10%
CC(=O)/C(C)=C/C1C(C)=CCCC1(C)C (stereo not shown) [gamma-methyl ionone]		12%				
CC(C)=CCC/C(C)=C/CO [Geraniol, geraniol]		8%		29%	10%	
CC(C)C(=O)OCCOc1ccccc1 [Phenoxyethyl isobutyrate, phenoxyethyl isobutyrate]		8%				
COc1cc(C=O)ccc1O [Vanillin, vanillin]						7%
C=CC(C)(CCC=C(C)C)OC(C)=O (stereo not shown) [Linalyl acetate, linalyl acetate]	2%		10.6%	16%		19%
O=C1CCCC=CCCCCCCCCCC1 [Ambretone, 5-cyclohexadecen-1-one]		4%				
CC(C)[C@@H]1CC[C@@H](C)C[C@H]1O [L-menthol]	1%	3%				
